Test system: patients with advanced solid tumors
Assay: Safety and tolerability (adverse events, NCI CTCAE v4.03), phase I dose-escalation study
Format: in vivo, human
Excerpt: This was a phase I, open-label, dose-escalation study of single-agent TAK-931. Dose escalation of TAK-931 was cohort based with an adaptive design using Bayesian logistic regression modeling (BLRM) with pharmacokinetic guidance. BLRM also guided MTD estimation from the second dose. Patients were enrolled in one of four dosing schedules (A, B, D, or E; Supplementary Fig. S1) to receive TAK-931. Two additional schedules were planned (C and F) but no patients were enrolled. Schedule A included an initial accelerated escalation phase. TAK-931 was administered once daily for 14 days in 21-day cycles starting at 30 mg, which doubled until a cycle 1 dose-limiting toxicity (DLT) was observed, when 2 patients experienced grade ≥2 treatment-related toxicity, or when maximum geometric mean plasma concentration (Cmax) for the cohort reached or exceeded 800 ng/mL [threshold for off-target adverse effects (hypotension) in animal toxicology studies]; then dose escalation transitioned to modified Fibonacci escalation steps. In schedule B (based on experience with schedule A), patients received TAK-931 once daily or twice daily for 7 days on, 7 days off in a 28-day cycle starting at 60 mg. In schedule D, patients received TAK-931 once daily starting at 20 mg in 21-day cycles; BLRM was not applied but further adjustments were dependent on observed safety, pharmacokinetics, and pharmacodynamics. In schedule E, patients received TAK-931 once daily for 2 days on, 5 days off starting at 100 mg in 21-day cycles. A safety expansion was permitted once MTD had been determined. Prophylactic growth factors were permitted in all schedules to manage severe and/or febrile neutropenia. TAK-931 treatment continued until unacceptable toxicity, disease progression, or patient withdrawal.
DLTs included: cycle 1 grade ≥3 hematologic and non-hematologic events or grade 2 non-hematologic events considered by the investigator to be TAK-931-related, grade 2 ejection fraction decrease, >2 weeks delay in initiating cycle 2 (1 week for schedules D and E), and >50% TAK-931 dose reduction in cycle 1 due to treatment-related adverse events (AEs; see Supplementary Materials and Methods for full DLT criteria). Toxicity was evaluated by NCI Common Terminology Criteria for Adverse Events (version 4.03). Tumor response was measured using the RECIST (version 1.1) ([16]). Serial blood samples for pharmacokinetic analysis were collected during cycle 1 on days 1 and 7 (schedule B), 1 and 8 (schedules A and D), or 1 and 9 (schedule E). Pharmacokinetic parameters were estimated from concentration–time profiles using noncompartmental methods with WinNonlin® Phoenix™ version 8.1 (Certara, Princeton, NJ). pMCM2 was detected semiquantitatively by IHC of histologic sections of formalin-fixed, paraffin-embedded skin and tumor biopsies using anti-pMCM2 (3378-1, Epitomics Inc.; ref. [15]). Quantitative image analysis determined pMCM2 levels as “histologic score nuclei (H-score).” Skin punch biopsies (2–4 mm) were obtained during screening or predose on cycle 1, day 1 and for patients in schedules A, B, and D, postdose on any drug dosing day after 3 consecutive dosing days in cycle 1. A postdose skin biopsy was obtained on day 9 in schedule E. Fresh tumor biopsy pairs were collected predose and postdose on any dosing day after the completion of 3 consecutive dosing days in cycle 1 from patients who received doses considered to have biological effect.
The safety population included patients who received ≥1 dose of TAK-931. The pharmacodynamic-evaluable population comprised patients from the safety population with a baseline and ≥1 additional postbaseline biopsy sample that was suitable for pMCM2 analysis. The pharmacokinetic-evaluable population included patients with sufficient dosing and TAK-931 concentration–time data to estimate pharmacokinetic parameters. […]

[1] = Schedule A (once daily 14 days, 21-day cycles) n = 25
[2] = Schedule B (7 days on, 7 days off, 28-day cycles) n = 24
[3] = Schedule D (continuous once daily) n = 18

Cc1[nH]ncc1-c1cc2nc([C@@H]3CC4CCN3CC4)[nH]c(=O)c2s1 [TAK-931, simurosertib]
3 (12) n %: White blood cell count decreased, grade ≥3 AE [1]
1 (6) n %: Anemia, grade ≥3 AE [3] | Decreased appetite, grade ≥3 AE [3]
3 (13) n %: Anemia, grade ≥3 AE [2] | Febrile neutropenia, grade ≥3 AE [2] | White blood cell count decreased, grade ≥3 AE [2]
6 (25) n (%): Stomatitis, AE any grade [2]
13 (54) n (%): Alopecia, AE any grade [2] | Leukopenia, AE any grade [2] | Vomiting, AE any grade [2]
21 (88) n (%): Nausea, AE any grade [2]
8 (32) n (%): White blood cell count decreased, AE any grade [1]
5 (20) n (%): Leukopenia, AE any grade [1] | Malaise, AE any grade [1] | Pyrexia, AE any grade [1]
5 (28) n (%): Nausea, AE any grade [3]
0 (0) n (%): Fall, AE any grade [1] | Gamma-glutamyltransferase increased, AE any grade [1] | Orthostatic hypotension, AE any grade [1] | Pruritus, AE any grade [1] | Rash popular, AE any grade [1] | Stomatitis, AE any grade [1] | Cough, AE any grade [2] | Electrocardiogram QT prolonged, AE any grade [2] | Lymphocyte count decreased, AE any grade [2] | Abdominal pain, AE any grade [3] | Cough, AE any grade [3] | Electrocardiogram QT prolonged, AE any grade [3] | Febrile neutropenia, AE any grade [3] | Gamma-glutamyltransferase increased, AE any grade [3] | Hypoalbuminemia, AE any grade [3] | Hypotension, AE any grade [3] | Leukopenia, AE any grade [3] | Lymphocyte count decreased, AE any grade [3] | Lymphopenia, AE any grade [3] | Orthostatic hypotension, AE any grade [3]
2 (11) n (%): Constipation, AE any grade [3] | Edema peripheral, AE any grade [3] | Platelet count decreased, AE any grade [3] | Pyrexia, AE any grade [3]
15 (63) n %: Neutropenia, grade ≥3 AE [2]
1 (4) n %: Anemia, grade ≥3 AE [1] | Febrile neutropenia, grade ≥3 AE [1] | Hypophosphatemia, grade ≥3 AE [1] | Lymphocyte count decreased, grade ≥3 AE [1] | Hypophosphatemia, grade ≥3 AE [2]
6 (24) n (%): Alopecia, AE any grade [1] | Anemia, AE any grade [1]
11 (44) n %: Neutropenia, grade ≥3 AE [1]
5 (20) n %: Leukopenia, grade ≥3 AE [1]
6 (25) n %: Leukopenia, grade ≥3 AE [2]
3 (12) n (%): Arthralgia, AE any grade [1] | Blood creatinine increased, AE any grade [1] | Cough, AE any grade [1] | Electrocardiogram QT prolonged, AE any grade [1] | Lymphocyte count decreased, AE any grade [1] | Tumor pain, AE any grade [1]
1 (4) n (%): Dry skin, AE any grade [1] | Febrile neutropenia, AE any grade [1] | Thrombocytopenia, AE any grade [1] | Arthralgia, AE any grade [2] | Dry skin, AE any grade [2] | Edema peripheral, AE any grade [2] | Fall, AE any grade [2] | Malaise, AE any grade [2] | Orthostatic hypotension, AE any grade [2] | Platelet count decreased, AE any grade [2] | Pyrexia, AE any grade [2] | Tumor pain, AE any grade [2]
3 (17) n %: Neutropenia, grade ≥3 AE [3]
3 (13) n (%): Abdominal pain, AE any grade [2] | Blood creatinine increased, AE any grade [2] | Febrile neutropenia, AE any grade [2] | Gamma-glutamyltransferase increased, AE any grade [2] | Lymphopenia, AE any grade [2] | Nasopharyngitis, AE any grade [2] | Pruritus, AE any grade [2] | Rash popular, AE any grade [2]
4 (16) n (%): Edema peripheral, AE any grade [1] | Hypoalbuminemia, AE any grade [1]
4 (17) n (%): Anemia, AE any grade [2] | Diarrhea, AE any grade [2] | Hypotension, AE any grade [2] | Thrombocytopenia, AE any grade [2]
7 (28) n (%): Decreased appetite, AE any grade [1] | Diarrhea, AE any grade [1] | Vomiting, AE any grade [1]
19 (79) n (%): Neutropenia, AE any grade [2]
15 (60) n (%): Nausea, AE any grade [1]
5 (21) n (%): Constipation, AE any grade [2] | Decreased appetite, AE any grade [2] | Fatigue, AE any grade [2] | White blood cell count decreased, AE any grade [2]
3 (17) n (%): Alopecia, AE any grade [3] | Anemia, AE any grade [3] | Fatigue, AE any grade [3] | Malaise, AE any grade [3]
2 (8) n (%): Abdominal pain, AE any grade [1] | Constipation, AE any grade [1] | Fatigue, AE any grade [1] | Hypotension, AE any grade [1] | Lymphopenia, AE any grade [1] | Nasopharyngitis, AE any grade [1] | Platelet count decreased, AE any grade [1] | Hypoalbuminemia, AE any grade [2]
2 (8) n %: Decreased appetite, grade ≥3 AE [1] | Gamma-glutamyltransferase increased, grade ≥3 AE [2] | Hypoalbuminemia, grade ≥3 AE [2]
1 (6) n (%): Arthralgia, AE any grade [3] | Blood creatinine increased, AE any grade [3] | Diarrhea, AE any grade [3] | Dry skin, AE any grade [3] | Fall, AE any grade [3] | Nasopharyngitis, AE any grade [3] | Pruritus, AE any grade [3]
12 (48) n (%): Neutropenia, AE any grade [1]
6 (33) n (%): Decreased appetite, AE any grade [3] | Neutropenia, AE any grade [3]
0 (0) n %: Gamma-glutamyltransferase increased, grade ≥3 AE [1] | Hypoalbuminemia, grade ≥3 AE [1] | Decreased appetite, grade ≥3 AE [2] | Lymphocyte count decreased, grade ≥3 AE [2] | Febrile neutropenia, grade ≥3 AE [3] | Gamma-glutamyltransferase increased, grade ≥3 AE [3] | Hypoalbuminemia, grade ≥3 AE [3] | Hypophosphatemia, grade ≥3 AE [3] | Leukopenia, grade ≥3 AE [3] | Lymphocyte count decreased, grade ≥3 AE [3]
